Measured values: patent US20160051493A1, “METHODS OF TREATMENT OF KERATINOCYTE-DERIVED LESIONS” (THE TRUSTEES OF COLUMBIA UNIVERSITY IN THE CITY OF NEW YORK, priority 2012, published 2016)
“Also recorded” adds a separate entry of the source. Like-named read-outs stand apart in the source and are kept apart here.

Legend:
[1] = tested on: normal human epidermal keratinocytes; experiment: Ratiometric fura-2 live-cell calcium imaging of keratinocytes; assay type: cell-based; details: for % Responders (undifferentiated) Mean ± SEM or SD: growth conditions, saturating agonist (4αPDD 3 μM, camphor 10 mM, 2-APB 100 μM, capsaicin 1 μM, mustard oil 300 μM), SD for capsaicin and mustard oil; for cytoplasmic Ca2+ signals in undifferentiated keratinocytes: 0.15%, within 1 minute of perfusion, versus vehicle
Experimental: (§1) Normal human keratinocytes were isolated from human foreskins by undergoing two enzymatic dissociation steps, first in dispase then in trypsin. Cells were cultured in EpiLife supplemented with human keratinocyte growth supplement (HKGS; Invitrogen). For all experiments with undifferentiated cells, keratinocytes were harvested or images at ˜75% confluency. Differentiation was induced by adding CaCl2 to the EpiLife media to reach a final [Ca2+] of 1.2 mM. Cells were typically cultured for 3 days under differentiation conditions before they were assayed. Keratinocytes were cultured for <5 passages. Purified Camphor (CAS #76-22-2), 2-APB (Tocris) or vehicle (1% EtOH)-containing media were used as indicated.
Human keratinocytes and SCC cells were washed in Ringer's solution (in mM: NaCl 140, KCl 5, D-glucose 10, HEPES 10, CaCl2 2, MgCl2 2, pH 7.2) and loaded with 5 μM fura-2AM and 1 μM pluronic (Invitrogen) for 30 minutes in the dark. During live-cell imaging, saturating concentrations of TRP agonists (10 mM Camphor, 100 μM 2-APB 1 μM Capsaicin, 300 μM Mustard oil or 3 μM 4αPDD) in Ringer's were used. Cells were imaged for 20 s to establish a baseline and then acutely treated with each agonist for 60 seconds. Imaging was performed on an Olympus IX81 microscope with a 20× (NA 0.17) objective and a Hamamatsu ORCA-R2 camera. 340- and 380-nm excitation and 540-nm emission filters were used to capture fura-2 fluorescence. Data are expressed as a ratio of fluorescent signals (340/380). All data acquisition was performed in MetaFluor. Data analysis was performed with custom algorithms in IgorPro. Cells with baseline levels ±2 SD above the mean were excluded from analysis as unhealthy. Responders were designated as cells whose 340/380 ratio was ≧20% above baseline.
TRP channels are selectively activated by endogenous and exogenous ligands at micromolar to millimolar concentrations. Since TRP channel activity increases over this range to allow graded Ca^2+ influx, receptor activity levels can be monitored by live-cell Ca^2+ imaging. A ratiometric calcium indicator (Fura-2) was employed to determine whether a panel of TRP-channel agonists elicited cytoplasmic calcium increases in human epidermal keratinocytes. (FIG. 1A-1E, FIG. 2A-2B, and Table 3).
Normal human keratinocytes were cultured in low-calcium media to promote proliferation or in 1.2-mM calcium media to induce differentiation. For live-cell imaging, keratinocytes were then washed and bathed in Ringer's solution containing 2 mM calcium so that calcium signals could be directly compared between cell populations.
In keratinocytes, increased intracellular calcium stimulates the terminal differentiation process. To determine whether camphor oil and its abundant constituents are directly bioactive on epithelial keratinocytes, a ratiometric Ca2+ indictor (Fura-2) was employed to test whether a panel of terpenes elicited cytoplasmic Ca2+ increases in undifferentiated human epidermal keratinocytes (FIG. 19A-19C). Keratinocytes were cultured according to our standard methods. For live-cell imaging, keratinocytes were bathed in Ringer's solution containing 2 mM Ca2+.

[2] = 0.5 to 5 percent ointment or liquid, once or twice a day for two to four weeks; cited from earlier work
[3] = tested on: normal human keratinocytes; experiment: Keratinocyte cell counts (DAPI), morphology and EdU proliferation assay after 24 h treatment; details: in the presence of camphor
Experimental: as §1
Cells were treated with 2-APB or camphor for 24 hours at 37° C., exposed to EdU for 45 min, fixed and stained with DAPI for cell counting. EdU Click-It assays (Invitrogen) were used to assess cell-cycle entry. The cells were then fixed and stained with DAPI. Three fields per well were assayed via a 20× objective and there were 4 wells per treatment in each experiment. EdU=5-ethynyl-2′-deoxyuridine.
As Ca^2+ triggers the commitment switch from proliferation to differentiation in keratinocytes, it was reasoned that increasing intracellular calcium by incubating keratinocytes in TRP agonists might be sufficient to induce this cell-fate switch in low-calcium growth media. To test this hypothesis, normal human keratinocytes were cultured for 24 hours under low-Ca^2+ conditions in the presence of low (12.5 μM), half-maximal (50 μM) and saturating (100 μM) concentrations of 2-APB (FIG. 3A) or camphor (0-8 mM) (FIG. 3E). These TRP agonists were chosen because they reliably elicited intracellular calcium signaling in normal human keratinocytes (FIG. 1A-1E).
As camphor can activate both TRPV3 and TRPV1 channels, these experiments were repeated in the presence of a specific TRPV1 antagonist, AMG-9810 (Gavva et al., 2005).

[4] = tested on: TRPV3; details: reported in literature; cited from earlier work
[5] = tested on: skin tumors; details: mouse, in vivo; cited from earlier work
[6] = tested on: precancerous lesions and SCCs; assay type: in vivo; details: 20% wt/wt in acetone, topical once daily, five weeks
[7] = tested on: normal keratinocytes; experiment: In vivo keratinocyte proliferation (EdU, flow cytometry) in healthy mouse skin; design: species or system mice; details: 20% topical, five consecutive days
Experimental: Age matched FVB (female mice purchased from Jackson labs) aged 6-8 weeks were shave on their dorsal sides. Mice were then treated for five consecutive days with vehicle, 20% camphor white oil, 20% eucalyptol, 20% α-pinene, 20% dipentene, or 20% γ-terpinene (2-6 mice per group). Mice were then injected with EdU and sacrificed one hour later. The epidermis was isolated and stained for Itgα6, Sca1+, and EDU. Itgα6+Sca1+EdU+ cells were then identified on a flow cytometer.
To test whether effects of camphor white oil on normal keratinocytes are TrpV3 dependent proliferation in TrpV3 mutant and wild type mice treated with camphor oil was analyzed. TrpV3 mutant and wild type mice aged 6-8 weeks were shaved on their dorsal sides. Mice were then treated for five consecutive days with vehicle or 20% camphor oil (4-5 mice per group). Mice were then injected with EdU (5-ethynyl-2′-deoxyuridine) and sacrificed one hour later. The epidermis was isolated and stained for Itga6, Sca1, and EdU. Itga6+Sca1+EdU+ cells were then identified on a flow cytometer to identify cells in the intrafollicular epidermis that are actively proliferating.

[8] = responders F340:F380 increase ≧20%

CCCCCCCCCC(=O)O[C@@H]1[C@@H](C)[C@@]2(O)[C@@H](C=C(CO)C[C@@]3(O)C(=O)C(C)=C[C@@H]23)[C@@H]2C(C)(C)[C@]12OC(=O)CCCCCCCCC [4αPDD, 4α-phorbol-12,13 didecanoate, reference compound]
% Responders (differentiated) Mean ± SEM ([1]; differentiated in 1.2 mM Ca2+, responders F340:F380 increase ≧20%, 4αPDD 3 μM, camphor 10 mM, 2-APB 100 μM): 70.8 ± 11.1%
% Responders (undifferentiated) Mean ± SEM or SD [1, 8]: 84.8 ± 1.6%
keratinocytes with robust increases in intracellular Ca2+ ([1]; growth or differentiation conditions): > 70%

O=c1[nH]cc(F)c(=O)[nH]1 [5-fluorouracil]
cure rates [2]: up to 93%

CC(C)(C)c1ccc(/C=C/C(=O)Nc2ccc3c(c2)OCCO3)cc1 [AMG-9810, (E)-3-(4-t-butylphenyl)-N-(2,3-dihydrobenzo[b][1,4]dioxin-6-yl)acrylamide, reference compound]
effect of TRPV1 inhibition on camphor's effects on keratinocyte proliferation [3]: did not alter

CC1(C)C2CCC1(C)C(O)C2 (centres unmarked) [Borneol, reference compound]
effectiveness as a TRPV3 agonist relative to camphor [4]: more effective than camphor

COc1cc(CNC(=O)CCCC/C=C/C(C)C)ccc1O [Capsaicin, reference compound]
% Responders (undifferentiated) Mean ± SEM or SD [1, 8]: 2.3+/−2.6%

CC1(C)C2CCC1(CS(=O)(=O)O)C(=O)C2=Cc1ccc(C=C2C(=O)C3(CS(=O)(=O)O)CCC2C3(C)C)cc1 [Ecamsule, Terephthalylidene Dicamphor Sulfonic Acid]
Results of safety: against skin tumors in mice [5]: Protects

C=CCN=C=S [Mustard oil, reference compound]
% Responders (undifferentiated) Mean ± SEM or SD [1, 8]: 0.6 ± 1.2%^
% Responders (undifferentiated) Mean ± SEM or SD ([1]; responders F340:F380 increase ≧20%, listed as Mustard Oil): 0.6+/−1.2%
% Responders (undifferentiated) Mean ± SEM or SD ([1]; responders F340:F380 increase ≧20%, listed as mustard oil): 0.6+/−1.2%

C=C(C)[C@H]1CC=C(C)CC1 [dipentene, Dipentene]
premalignant tumors per mouse versus vehicle [6]: antitumor effects
premalignant tumors per mouse versus vehicle ([6]; listed as Dipentene): most striking tumor reductions
keratinocyte proliferation (Itgα6+Sca1+EdU+ cells) compared with vehicle [7]: significant increases

CC12CCC(CC1)C(C)(C)O2 [eucalyptol, Eucalyptol]
cytoplasmic Ca2+ signals in undifferentiated keratinocytes [1]: no effects
keratinocyte proliferation (Itgα6+Sca1+EdU+ cells) compared with vehicle [7]: significant increases

CC1=CCC2CC1C2(C)C (stereo not drawn) [α-pinene, α-Pinene]
premalignant tumors per mouse versus vehicle [6]: antitumor effects; also recorded: most striking tumor reductions
cytoplasmic Ca2+ signals in undifferentiated keratinocytes [1]: stimulated detectable calcium signals; also recorded: induced calcium increases
keratinocyte proliferation (Itgα6+Sca1+EdU+ cells) compared with vehicle [7]: significant increases

CC1=CCC(C(C)C)=CC1 [γ-terpinene, γ-Terpinene]
keratinocyte proliferation (Itgα6+Sca1+EdU+ cells) compared with vehicle [7]: significant increases
